Patent US10597388B2, “Pyridazinone herbicides” (FMC CORPORATION, priority 2014, dated 2020)

How the values were obtained:
Assay type in all cases: in vivo
[1] = test system: ragweed (common ragweed, Ambrosia elatior); experiment: Test A greenhouse herbicide test, pre- and postemergence
Outline: (§1)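 Visual injury ratings, 0 (no effect) to 100 (complete control), versus untreated plants after roughly 10 d in a greenhouse. Compounds, formulated in a surfactant-containing non-phytotoxic solvent, were sprayed on loam–sand soil after sowing (pre) or on one- to two-leaf plants 2–10 cm tall (post).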

[2] = test system: foxtail, giant (giant foxtail, Setaria faberii); experiment: as above
Outline: as §1

[3] = test system: barnyardgrass (Echinochloa crus-galli); experiment: as above
Outline: as §1

[4] = test system: corn (Zea mays); experiment: as above; details: Postemergence; for Plant response rating, Corn: 125 g ai/ha; for Corn plant response rating: 500 g ai/ha, 0 to 100 scale, 0 is no effect, 100 is complete control
Outline: as §1

[5] = test system: pigweed (Amaranthus retroflexus); experiment: as above
Outline: as §1

[6] = test system: nutsedge, yellow (yellow nutsedge, Cyperus esculentus); experiment: Test C greenhouse herbicide test, pre- and postemergence
Outline: (§2)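 Visual 0–100 injury score (100 = complete control) taken against untreated controls after 13–15 d in greenhouse. Test chemicals, formulated in solvent plus surfactant, applied preemergence to seeds in loam–sand soil or postemergence to 1- to 4-leaf plants (2–18 cm).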

[7] = test system: barnyardgrass (Echinochloa crus-galli); experiment: as above
Outline: as §2

[8] = test system: wheat (winter wheat, Triticum aestivum); experiment: as above
Outline: as §2

[9] = test system: galium (catchweed bedstraw, Galium aparine); experiment: as above
Outline: as §2

[10] = test system: blackgrass (Alopecurus myosuroides); experiment: Test A greenhouse herbicide test, postemergence; details: for Plant response rating, Blackgrass: 125 g ai/ha; for Blackgrass plant response rating: 500 g ai/ha, 0 to 100 scale, 0 is no effect, 100 is complete control
Outline: (§3)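 Seedlings in a loam soil and sand mix received formulated compound postemergence at the one- to two-leaf stage. Greenhouse holding lasts approximately 10 d, then injury is scored visually relative to untreated plants, 0 meaning no effect and 100 complete control.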

[11] = test system: galium (catchweed bedstraw, Galium aparine); experiment: Test A greenhouse herbicide test, postemergence; details: for Plant response rating, Galium: 125 g ai/ha; for Galium plant response rating: 500 g ai/ha, 0 to 100 scale, 0 is no effect, 100 is complete control
Outline: as §3

[12] = Postemergence, 125 g ai/ha, visual rating after approx. 10 d, 0 to 100 scale (0 no effect, 100 complete control)
[13] = Postemergence, 500 g ai/ha, 0 to 100 scale, 0 is no effect, 100 is complete control
[14] = Preemergence, 125 g ai/ha, 0 to 100 scale where 0 is no effect and 100 is complete control
[15] = Preemergence, 500 g ai/ha, 0 to 100 scale, 0 no effect, 100 complete control
[16] = visual rating after approx. 10 d, 0 to 100 scale (0 no effect, 100 complete control)
[17] = Postemergence, 31 g ai/ha, 0 to 100 scale (0 no effect, 100 complete control)
[18] = Postemergence, 125 g ai/ha, scale 0 to 100, 0 is no effect, 100 is complete control
[19] = Postemergence, 250 g ai/ha, scale 0 to 100, 0 no effect, 100 complete control, 13 to 15 d
[20] = Preemergence, 31 g ai/ha, scale 0 to 100, 0 is no effect, 100 is complete control
[21] = Preemergence, 62 g ai/ha, scale 0 to 100, 0 is no effect, 100 is complete control
[22] = Preemergence, 125 g ai/ha, scale 0 to 100, 0 is no effect, 100 is complete control
[23] = Preemergence, 250 g ai/ha, scale 0 to 100 (0 no effect, 100 complete control)
[24] = postemergence, 62 g ai/ha, scale 0 to 100, 0 no effect, 100 complete control
[25] = Postemergence, 125 g ai/ha, 0 to 100 scale where 0 is no effect and 100 is complete control
[26] = 0 to 100 scale where 0 is no effect and 100 is complete control
[27] = Postemergence, 16 g ai/ha, scale 0 to 100 (0 no effect, 100 complete control)

CCOC(=O)Oc1c(C)nn(C)c(=O)c1-c1c(CC)ccc2ccccc12 [Compound 37]
60: Plant response rating, Barnyardgrass [3, 12] | Plant response rating, Nutsedge, Yellow [6, 19] | Nutsedge, Yellow plant response rating [6, 23] | Plant response rating, Barnyardgrass [7, 18] | Plant response rating, Blackgrass [10, 16]
0: Plant response rating, Corn [4, 16] | Plant response rating, Nutsedge, Yellow [6, 20] | Plant response rating, Wheat [8, 20] | Plant response rating, Wheat [8, 21] | Wheat plant response rating [8, 24]
45: Wheat plant response rating [8, 23]
35: Plant response rating, Wheat [8, 19]
10: Plant response rating, Barnyardgrass [7, 20]
65: Plant response rating, Nutsedge, Yellow [6, 18]
5: Plant response rating, Wheat [8, 22]
95: Plant response rating, Galium [9, 18] | Plant response rating, Galium [9, 19] | Plant response rating, Galium [9, 22] | Galium plant response rating [9, 24]
25: Barnyardgrass plant response rating [7, 17]
40: Corn plant response rating [4] | Plant response rating, Nutsedge, Yellow [6, 22] | Nutsedge, Yellow plant response rating [6, 24]
100: Plant response rating, Pigweed [5, 12] | Pigweed plant response rating [5, 13] | Pigweed plant response rating [5, 14] | Plant response rating, Pigweed [5, 15] | Plant response rating, Galium [9, 20] | Galium plant response rating [9, 23] | Blackgrass plant response rating [10] | Plant response rating, Galium [11, 16] | Galium plant response rating [11]
80: Ragweed plant response rating [1, 14] | Plant response rating, Foxtail, Giant [2, 12] | Barnyardgrass plant response rating [7, 23]
20: Nutsedge, Yellow plant response rating [6, 17] | Plant response rating, Nutsedge, Yellow [6, 21] | Barnyardgrass plant response rating [7, 24]
30: Barnyardgrass plant response rating [3, 14] | Plant response rating, Barnyardgrass [7, 21] | Wheat plant response rating [8, 17] | Plant response rating, Wheat [8, 18]
70: Foxtail, Giant plant response rating [2, 14] | Plant response rating, Barnyardgrass [7, 22]
90: Plant response rating, Ragweed [1, 12] | Ragweed plant response rating [1, 13] | Plant response rating, Ragweed [1, 15] | Foxtail, Giant plant response rating [2, 13] | Plant response rating, Foxtail, Giant [2, 15] | Barnyardgrass plant response rating [3, 13] | Plant response rating, Barnyardgrass [3, 15] | Plant response rating, Barnyardgrass [7, 19] | Galium plant response rating [9, 17] | Plant response rating, Galium [9, 21]

COc1ccc2ccccc2c1-c1c(O)c(C)nn(C)c1=O [Compound 40]
85: Galium plant response rating [9, 24]
80: Plant response rating, Ragweed [1, 15] | Foxtail, Giant plant response rating [2, 13] | Plant response rating, Pigweed [5, 25] | Galium plant response rating [9, 17] | Blackgrass plant response rating [10]
90: Ragweed plant response rating [1, 13] | Pigweed plant response rating [5, 14] | Plant response rating, Galium [9, 18] | Plant response rating, Galium [11, 26]
5: Plant response rating, Barnyardgrass [7, 27] | Barnyardgrass plant response rating [7, 17]
70: Plant response rating, Ragweed [1, 25] | Plant response rating, Foxtail, Giant [2, 15]
100: Pigweed plant response rating [5, 13] | Plant response rating, Pigweed [5, 15] | Galium plant response rating [11]
15: Nutsedge, Yellow plant response rating [6, 24] | Barnyardgrass plant response rating [7, 24]
0: Plant response rating, Corn [4, 26] | Plant response rating, Nutsedge, Yellow [6, 27] | Nutsedge, Yellow plant response rating [6, 17] | Plant response rating, Wheat [8, 27]
20: Plant response rating, Nutsedge, Yellow [6, 18]
10: Plant response rating, Barnyardgrass [3, 25] | Barnyardgrass plant response rating [3, 14] | Corn plant response rating [4] | Wheat plant response rating [8, 17] | Plant response rating, Wheat [8, 18] | Wheat plant response rating [8, 24]
50: Plant response rating, Barnyardgrass [3, 15]
60: Plant response rating, Foxtail, Giant [2, 25] | Barnyardgrass plant response rating [3, 13] | Plant response rating, Blackgrass [10, 26]
40: Foxtail, Giant plant response rating [2, 14]
25: Plant response rating, Barnyardgrass [7, 18]
30: Ragweed plant response rating [1, 14] | Plant response rating, Galium [9, 27]

CCC(=O)Oc1c(C)nn(C)c(=O)c1-c1c(C)sc2ccc(C)cc12 [Compound 42]
75: Nutsedge, Yellow plant response rating [6, 24]
20: Corn plant response rating [4] | Barnyardgrass plant response rating [7, 17]
30: Plant response rating, Barnyardgrass [3, 25] | Plant response rating, Barnyardgrass [7, 18] | Plant response rating, Barnyardgrass [7, 21] | Barnyardgrass plant response rating [7, 24]
40: Plant response rating, Nutsedge, Yellow [6, 22] | Plant response rating, Barnyardgrass [7, 19]
80: Foxtail, Giant plant response rating [2, 14] | Barnyardgrass plant response rating [3, 14] | Nutsedge, Yellow plant response rating [6, 23] | Barnyardgrass plant response rating [7, 23] | Plant response rating, Blackgrass [10, 26]
65: Nutsedge, Yellow plant response rating [6, 17]
98: Galium plant response rating [9, 23]
90: Ragweed plant response rating [1, 14] | Plant response rating, Foxtail, Giant [2, 25] | Barnyardgrass plant response rating [3, 13] | Plant response rating, Pigweed [5, 25] | Plant response rating, Galium [9, 20] | Plant response rating, Galium [9, 21] | Galium plant response rating [9, 24] | Blackgrass plant response rating [10]
5: Wheat plant response rating [8, 23]
0: Plant response rating, Corn [4, 26] | Plant response rating, Barnyardgrass [7, 20] | Wheat plant response rating [8, 17] | Plant response rating, Wheat [8, 18] | Plant response rating, Wheat [8, 19] | Plant response rating, Wheat [8, 20] | Plant response rating, Wheat [8, 21] | Plant response rating, Wheat [8, 22] | Wheat plant response rating [8, 24]
95: Plant response rating, Nutsedge, Yellow [6, 19] | Galium plant response rating [9, 17] | Plant response rating, Galium [9, 19] | Plant response rating, Galium [9, 22]
60: Plant response rating, Nutsedge, Yellow [6, 21] | Plant response rating, Barnyardgrass [7, 22]
100: Plant response rating, Ragweed [1, 25] | Ragweed plant response rating [1, 13] | Plant response rating, Ragweed [1, 15] | Foxtail, Giant plant response rating [2, 13] | Plant response rating, Foxtail, Giant [2, 15] | Plant response rating, Barnyardgrass [3, 15] | Pigweed plant response rating [5, 13] | Pigweed plant response rating [5, 14] | Plant response rating, Pigweed [5, 15] | Plant response rating, Galium [9, 18] | Plant response rating, Galium [11, 26] | Galium plant response rating [11]
55: Plant response rating, Nutsedge, Yellow [6, 20]

Cc1cc(C)c2ccccc2c1-c1c(O)cnn(C)c1=O [Compound 51]
35: Nutsedge, Yellow plant response rating [6, 17]
90: Plant response rating, Foxtail, Giant [2, 15] | Plant response rating, Barnyardgrass [3, 15] | Pigweed plant response rating [5, 13] | Plant response rating, Nutsedge, Yellow [6, 19] | Plant response rating, Galium [9, 18] | Galium plant response rating [9, 24] | Plant response rating, Galium [11, 26]
60: Blackgrass plant response rating [10]
80: Plant response rating, Ragweed [1, 15] | Foxtail, Giant plant response rating [2, 13] | Barnyardgrass plant response rating [3, 13]
30: Ragweed plant response rating [1, 14] | Barnyardgrass plant response rating [3, 14] | Plant response rating, Blackgrass [10, 26]
85: Plant response rating, Nutsedge, Yellow [6, 18] | Galium plant response rating [9, 17]
70: Plant response rating, Ragweed [1, 25] | Ragweed plant response rating [1, 13] | Plant response rating, Pigweed [5, 25] | Pigweed plant response rating [5, 14] | Nutsedge, Yellow plant response rating [6, 24]
20: Plant response rating, Barnyardgrass [3, 25] | Plant response rating, Barnyardgrass [7, 19]
0: Plant response rating, Corn [4, 26] | Corn plant response rating [4] | Wheat plant response rating [8, 17] | Plant response rating, Wheat [8, 18] | Plant response rating, Wheat [8, 19] | Wheat plant response rating [8, 24]
95: Plant response rating, Galium [9, 19]
100: Plant response rating, Pigweed [5, 15] | Galium plant response rating [11]
50: Plant response rating, Foxtail, Giant [2, 25] | Foxtail, Giant plant response rating [2, 14]
10: Plant response rating, Barnyardgrass [7, 18]
5: Barnyardgrass plant response rating [7, 17] | Barnyardgrass plant response rating [7, 24]
